In publication PMC6198068, “Discovery of a Novel Nav1.7 Inhibitor From Cyriopagopus albostriatus Venom With Potent Analgesic Efficacy” (Frontiers in Pharmacology, 2018):

How the values were obtained:
[1] = tested on: formalin-induced paw licking in mice; assay: Formalin-induced paw licking; type: in vivo, ICR mice; conditions: mouse, in vivo, ip
Experimental: (§1) The ICR mice (18–22 g) used in this study were purchased from the Experimental Animal Center of SLac-kinda (Changsha, China). The animals were maintained at 20–25°C and freely allowed to standard rodent chow and water ad libitum. Ethical approval for in vivo experiments in animals was approved by the Animal Care and Use Committee (ACUC) at the Hunan Province Animal Management Office (HPAMO).
A formalin test was performed according to the previous method ([Owoyele et al., 2005]). […] The time spent licking the injected paw by each mouse was recorded by a digital stopwatch during Phase I (0–15 min post-injection) and Phase II (15–40 min post-injection).

hot plate test in mice = assay: Hot plate test; type: in vivo, ICR mice; conditions: mouse, in vivo
Experimental: as §1
According to a previous method ([Meng et al., 2017]), a hot plate apparatus (model YLS-21A, Jinan, China) maintained at 55 ± 1°C, was used to measure the pain threshold of mice subjected to a thermal stimulus. Each female mouse was placed on hot plate to observe its pain response (hind-paw-licking or jumping) acted as its own control. The mice whose latent response times were shorter than 5 s or longer than 30 s were excluded from the test.

Nav1.4 = tested on: Nav1.4; design: method as in Xiao et al., 2008; Goncalves et al., 2018; conditions: skeletal isoform; ref Xiao et al., 2008; Goncalves et al., 2018; cited from earlier work

Row | Compound | analgesic effect on Phase I compared to control [1] | paw licking time, Phase I [1] [s] | paw licking time, Phase II [1] [s] | latency time, hot plate (hot plate test in mice) [s] | IC50 (Nav1.4) [nM]
1 | CN1CC[C@]23c4c5ccc(O)c4O[C@H]2[C@@H](O)C=C[C@H]3[C@H]1C5 [morphine, reference compound] | modest analgesia | 64.1 ± 8.5 | 126.1 ± 19.8 | 15.2 ± 1.9 | 
2 | HWTX-IV: spider peptide toxin; printed as μ-TRTX-Hhn1b (HWTX-IV) in b50, μ-TRTX-Hs2a (HWTX-IV) in b51 |  |  |  |  | 400
